Assay results: patent US20250304594A1, “METHYL (R)-2-(FLUOROMETHYL)-5-OXO-4-PHENYL-4,5,6,7-TETRAHYDRO-1H-CYCLOPENTA[B]PYRIDINE-3-CARBOXYLATE AND METHYL (R)-2-(FLUOROMETHYL)-5-OXO-4-PHENYL-1,4,5,7-TETRAHYDROFURO[3,4-B]PYRIDINE-3-CARBOXYLATE AS Cav1,2 ACTIVATORS” (Novartis AG, priority 2020, published 2025)

Columns and labels:
human CaV1.2 [1] = target: T1, human CaV1.2 (Homo sapiens, UniProt Q13936); test: Sophion QPatch dose-response assay, whole-cell voltage clamp of barium currents in CaV1.2-HEK293(AUX) cells; format: cell-based; details: for Qpatch Emax: maximal fold change of peak inward current
T1 construct: expressed in transfected cells; host or cells: Flp-In 293 T-Rex (HEK293), monoclonal CaV1.2-HEK293(AUX) clone 2-19B; doxycycline-induced auxiliary subunits
T1 sequence (Q13936 1-2138 isoform Q13936-23): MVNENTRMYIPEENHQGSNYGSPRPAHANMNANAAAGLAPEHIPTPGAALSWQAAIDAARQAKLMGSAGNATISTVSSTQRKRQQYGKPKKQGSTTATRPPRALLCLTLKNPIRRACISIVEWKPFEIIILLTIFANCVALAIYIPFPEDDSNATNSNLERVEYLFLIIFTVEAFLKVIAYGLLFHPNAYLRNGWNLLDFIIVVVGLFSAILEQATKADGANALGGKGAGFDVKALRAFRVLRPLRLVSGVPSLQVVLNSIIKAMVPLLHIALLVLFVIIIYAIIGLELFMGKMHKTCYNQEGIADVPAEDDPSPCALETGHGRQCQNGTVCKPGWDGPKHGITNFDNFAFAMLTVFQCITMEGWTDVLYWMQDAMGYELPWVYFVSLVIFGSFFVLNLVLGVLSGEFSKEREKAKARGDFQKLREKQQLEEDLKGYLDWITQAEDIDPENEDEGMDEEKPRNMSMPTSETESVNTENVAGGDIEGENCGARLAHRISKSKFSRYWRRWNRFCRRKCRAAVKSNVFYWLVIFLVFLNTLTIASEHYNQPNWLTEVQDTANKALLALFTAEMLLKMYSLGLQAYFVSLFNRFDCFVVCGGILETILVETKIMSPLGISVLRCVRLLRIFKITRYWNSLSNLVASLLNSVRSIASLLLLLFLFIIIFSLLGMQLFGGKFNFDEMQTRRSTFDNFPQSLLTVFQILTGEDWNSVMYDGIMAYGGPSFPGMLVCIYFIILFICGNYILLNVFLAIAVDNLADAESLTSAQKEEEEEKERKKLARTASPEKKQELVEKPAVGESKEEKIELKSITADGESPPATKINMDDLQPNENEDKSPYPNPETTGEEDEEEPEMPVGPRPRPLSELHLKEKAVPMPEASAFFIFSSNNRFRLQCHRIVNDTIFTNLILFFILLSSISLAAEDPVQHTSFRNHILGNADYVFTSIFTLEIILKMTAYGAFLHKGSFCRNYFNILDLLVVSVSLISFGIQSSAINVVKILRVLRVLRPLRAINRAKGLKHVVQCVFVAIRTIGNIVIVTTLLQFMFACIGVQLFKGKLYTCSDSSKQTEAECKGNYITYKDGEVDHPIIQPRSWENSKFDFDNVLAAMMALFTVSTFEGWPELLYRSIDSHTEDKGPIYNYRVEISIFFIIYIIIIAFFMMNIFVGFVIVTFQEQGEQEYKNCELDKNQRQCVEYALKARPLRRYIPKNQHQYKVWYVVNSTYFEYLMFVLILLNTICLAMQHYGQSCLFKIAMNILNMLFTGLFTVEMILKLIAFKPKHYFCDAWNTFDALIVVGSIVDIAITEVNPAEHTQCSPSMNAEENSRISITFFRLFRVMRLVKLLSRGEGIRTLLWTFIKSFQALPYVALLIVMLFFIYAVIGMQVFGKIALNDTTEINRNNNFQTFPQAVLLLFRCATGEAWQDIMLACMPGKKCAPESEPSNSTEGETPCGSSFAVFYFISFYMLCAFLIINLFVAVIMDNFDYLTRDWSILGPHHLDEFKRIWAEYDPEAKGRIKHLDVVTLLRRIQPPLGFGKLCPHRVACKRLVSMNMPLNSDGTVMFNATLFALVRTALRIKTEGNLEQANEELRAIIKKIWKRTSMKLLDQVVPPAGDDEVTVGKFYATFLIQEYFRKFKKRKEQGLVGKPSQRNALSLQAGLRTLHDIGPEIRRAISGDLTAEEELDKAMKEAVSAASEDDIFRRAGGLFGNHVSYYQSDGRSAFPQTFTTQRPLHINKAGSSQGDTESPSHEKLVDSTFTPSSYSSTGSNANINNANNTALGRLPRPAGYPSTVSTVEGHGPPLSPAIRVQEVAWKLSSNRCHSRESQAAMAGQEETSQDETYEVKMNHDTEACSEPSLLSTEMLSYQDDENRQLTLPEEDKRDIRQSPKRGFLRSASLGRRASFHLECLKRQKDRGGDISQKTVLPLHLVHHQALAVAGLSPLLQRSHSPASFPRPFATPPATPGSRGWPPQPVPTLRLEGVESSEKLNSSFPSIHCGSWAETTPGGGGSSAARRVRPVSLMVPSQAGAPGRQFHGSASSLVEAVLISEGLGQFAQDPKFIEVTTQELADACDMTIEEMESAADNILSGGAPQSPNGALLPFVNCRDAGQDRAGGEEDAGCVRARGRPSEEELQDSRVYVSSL
T1 sequence (Q9NY47 19-1001 partner limits assumed): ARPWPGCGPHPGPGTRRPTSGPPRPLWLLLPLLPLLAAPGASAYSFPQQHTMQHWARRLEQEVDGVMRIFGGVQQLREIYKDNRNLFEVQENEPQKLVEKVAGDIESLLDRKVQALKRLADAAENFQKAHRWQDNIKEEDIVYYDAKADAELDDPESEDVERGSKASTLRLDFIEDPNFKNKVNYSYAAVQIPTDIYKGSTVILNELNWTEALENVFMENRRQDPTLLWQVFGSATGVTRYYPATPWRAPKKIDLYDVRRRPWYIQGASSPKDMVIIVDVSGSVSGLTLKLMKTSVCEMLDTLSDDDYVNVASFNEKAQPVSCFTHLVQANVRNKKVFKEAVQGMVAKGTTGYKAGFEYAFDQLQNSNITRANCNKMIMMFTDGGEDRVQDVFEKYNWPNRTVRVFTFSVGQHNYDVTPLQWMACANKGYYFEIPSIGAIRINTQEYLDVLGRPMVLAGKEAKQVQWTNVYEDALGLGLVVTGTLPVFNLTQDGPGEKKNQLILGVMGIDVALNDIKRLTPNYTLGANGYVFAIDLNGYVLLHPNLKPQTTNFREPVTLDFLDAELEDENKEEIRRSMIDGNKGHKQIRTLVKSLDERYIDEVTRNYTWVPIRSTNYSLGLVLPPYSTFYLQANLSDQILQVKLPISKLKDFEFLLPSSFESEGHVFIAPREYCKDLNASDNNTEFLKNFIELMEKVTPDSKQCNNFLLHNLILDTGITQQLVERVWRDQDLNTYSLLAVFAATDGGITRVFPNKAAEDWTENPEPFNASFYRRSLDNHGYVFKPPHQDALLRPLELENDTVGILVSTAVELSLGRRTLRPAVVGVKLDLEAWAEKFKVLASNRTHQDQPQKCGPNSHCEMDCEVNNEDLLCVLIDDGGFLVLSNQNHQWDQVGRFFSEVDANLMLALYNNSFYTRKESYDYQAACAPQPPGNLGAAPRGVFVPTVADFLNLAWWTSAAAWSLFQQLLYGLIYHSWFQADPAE
T1 sequence (Q9NY47 1002-1150 partner limits assumed): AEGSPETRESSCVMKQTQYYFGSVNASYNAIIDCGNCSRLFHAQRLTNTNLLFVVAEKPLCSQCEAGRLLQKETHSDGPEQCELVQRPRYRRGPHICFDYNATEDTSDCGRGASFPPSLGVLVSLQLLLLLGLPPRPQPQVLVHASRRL
T1 sequence (Q08289 whole entry partner): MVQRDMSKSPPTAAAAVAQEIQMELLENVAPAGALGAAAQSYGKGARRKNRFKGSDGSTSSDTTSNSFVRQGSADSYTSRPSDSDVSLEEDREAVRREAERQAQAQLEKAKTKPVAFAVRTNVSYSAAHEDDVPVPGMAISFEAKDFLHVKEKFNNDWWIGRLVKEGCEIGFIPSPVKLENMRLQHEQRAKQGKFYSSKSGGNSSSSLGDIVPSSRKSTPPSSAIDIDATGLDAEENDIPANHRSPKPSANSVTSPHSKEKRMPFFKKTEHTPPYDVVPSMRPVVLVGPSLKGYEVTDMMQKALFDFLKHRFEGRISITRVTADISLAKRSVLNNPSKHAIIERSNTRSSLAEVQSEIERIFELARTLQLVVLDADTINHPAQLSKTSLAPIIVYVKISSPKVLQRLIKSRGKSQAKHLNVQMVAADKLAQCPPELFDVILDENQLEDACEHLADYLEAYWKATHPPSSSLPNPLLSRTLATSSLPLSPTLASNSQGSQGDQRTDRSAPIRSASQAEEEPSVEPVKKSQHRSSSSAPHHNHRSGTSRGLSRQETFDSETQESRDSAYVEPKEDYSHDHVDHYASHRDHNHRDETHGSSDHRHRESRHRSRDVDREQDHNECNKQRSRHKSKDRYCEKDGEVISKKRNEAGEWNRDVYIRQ
Description: (§1) The monoclonal CaV1.2-HEK293(AUX) cell line constitutively expresses human CaV1.2 alpha1C (α1C) subunit (CACNA1C) and has doxycycline-inducible expression of the alpha2delta (α2Δ2) auxiliary subunit (CACNA2D2) and beta2 (02) auxiliary subunit (CACNB2). To generate the cell line, expression vectors pcDNA5.0/FRT-TO-CACNA2D2-FCS-P2A-CACNB2 and pCMV6-entry-CACNA1C were established via gene synthesis and cloning. Here, pcDNA5.0/FRT-TO plasmid is from Invitrogen, pCMV6-entry is from Origene, FCS stands for Furin Cleavage Site, P2A is a peptide self-cleavage sequence derived from porcine teschovirus-1, and FRT is the Flippase recognition target site. Next, parental line Flp-In™ 293 T-Rex (Invitrogen) was transfected with pcDNA5.0/FRT-TO-CACNA2D2-FCS-P2A-CACNB2 and Flippase vector pOG44 (Invitrogen) to establish targeted integration of the CACNA2D2-FCS-P2A-CACNB2 expression cassette into the pre-engineered FRT site in Flp-In™ 293 T-Rex. This intermediate cell line was then transfected with pCMV6-entry-CACNA1C to establish stable CACNA1C expression. Clonal isolation was achieved under Neomycin selection.
Electrophysiological Characterization of CaV1.2 Activators Using CaV1.2-HEK293(AUX) Cell Line and QPatch
(§2) 24 hours prior an electrophysiology experiment, doxycycline (1 μg/ml) was added to the growth medium (Table 6), and 25 μM of verapamil was co-applied to prevent calcium influx triggered cell death. Cell confluency should reach 70%-80% right before the experiment. To harvest cells (from a T175 cm^2 flask as an example), growth media were removed completely, and the cells were rinsed with 10 mL of D-PBS. D-PBS was aspirated, and 10 mL of Detachin (Genlantis) was added and the plate was placed in a 37° C. incubator for 10 minutes. Detached cells were placed into a 15 mL conical tube and spun at 1000 rpm for 2 minutes. Supernatant was removed, and cells were re-suspended in QPatch complete media (Table 7) to desired cell density of 1.5-3 million cells per QPatch run. Each experimental run uses 1.5 mL of cells.
(§3) The cells suspension was taken to the Sophion QPatch platform that uses whole-cell voltage clamp to measure barium currents conducted through CaV1.2 on single-hole QPlates. Extracellular and intracellular patch clamp solutions are described in Tables 7 and 8, respectively. A dose-response assay protocol was used to determine the maximal fold change of peak inward current (Emax) and potency (EC50) of each compound. The protocol had eight liquid periods. The first liquid period was to stabilize current amplitude, which was monitored using repetitive 200-ms voltage pulses stepping from −80 mV to 0 mV. The second liquid period was to determine baseline current amplitude in the presence of vehicle control, using a single 20-ms voltage pulse stepping from −80 mV to 0 mV. The third through eighth liquid periods were used to ascertain a 6-dose response to compound treatments, also using single 20-ms voltage pulses stepping from −80 mV to 0 mV. The EC50 was generated using the following equation Iconcentration=Ibase+(Ifull−Ibase)*c^n/(XC50^n+c^n), where c is the concentration and n is the Hill coefficient constant. Ifull is the maximal current achievable, and Ibase is 0. A channel biophysics assay protocol was used to determine channel gating properties including current-voltage relationship (IV curves), half-way channel activation voltage (V1/2), rate of channel inactivation (tau), and amplitude of tail current. Among these, V1/2 was derived from fitting equation G(V)=Gvmin+(Gvmax−Gvmin)/(1+exp(−(V−V½)/Vslope)), where G stands for conductance, Gvmin equals 0, Gvmax is the maximal conductance, and Vslope is a slope factor. G(V) was pre-calculated from equation G(V)=I(V)/(V−0.06), for each experimentally applied depolarization potential (V) and the corresponding current amplitude (I(V)), and 0.06 in the equation was the experimentally determined reversal potential in volts. The protocol had four liquid periods.

human CaV1.2 [2] = target: T1, human CaV1.2; test: QPatch channel biophysics assay (channel gating, V1/2 of activation, inactivation) in CaV1.2-HEK293(AUX) cells; format: cell-based
Description: as §1, with “selection. A cell clone (2-19B) with good voltage-dependent Barium current (see electrophysiology methods below) was selected for characterization of CaV1.2 activators.” for “selection.”
as §2
as §3, with “The protocol had four liquid periods.” left out

[3] = Table 10 comparative examples, single enantiomers of reported racemates
[4] = Table 9, 6-point dose response, 10 determinations per concentration, n = 1 unless * n = 2
[5] = Table 9, shift of half-way channel activation voltage V1/2

Row | Structure (SMILES) | EC50 (human CaV1.2 [1]; [3]) | EC50 (human CaV1.2 [1]; [4]) | Qpatch Emax (human CaV1.2 [1]; Table 9, n = 1 unless * n = 2) | Biophysics voltage shift (mV) (human CaV1.2 [2]; [5]) | Qpatch Emax (human CaV1.2 [1]; Table 10 comparative examples) | Biophysics voltage shift (mV) (human CaV1.2 [2]; Table 10 comparative examples)
1 | COC(=O)C1=C(C)NC2=C(C(=O)OC2)[C@H]1c1ccccc1C (single isomer, unassigned) [CAS# 85825-32-7, reference compound] | 2240 nM | – | – | – | – | –
2 | COC(=O)C1=C(CF)NC2=C(C(=O)OC2)[C@H]1c1cc(F)cc(F)c1CC(F)F (single isomer, unassigned) [Example 12] | – | 80 nM | 2.3 | −3.4 mV | – | –
3 | COC(=O)C1=C(CF)NC2=C(C(=O)CC2)[C@H]1c1cc(F)cc(F)c1C1CC1 (single isomer, unassigned) [Example 14] | – | 90 nM | 1.9 | −5.5 mV | – | –
4 | COC(=O)C1=C(CF)NC2=C(C(=O)OC2)[C@H]1c1cccc(F)c1OC(F)F (single isomer, unassigned) [Example 19] | – | 60 nM | 1.8 | −6.7 mV | – | –
5 | COC(=O)C1=C(CF)NC2=C(C(=O)OC2)[C@H]1c1cc(F)ccc1OC(F)F (single isomer, unassigned) [Example 20] | – | 220 nM | 3.0 | −8.5 mV | – | –
6 | COC(=O)C1=C(CF)NC2=C(C(=O)OC2)[C@H]1c1cc(F)ccc1C1CC1 (single isomer, unassigned) [Example 21] | – | 30 nM | 2.8 | −8.1 mV | – | –
7 | COC(=O)C1=C(CF)NC2=C(C(=O)OC2)[C@H]1c1ccccc1C1CC1 (single isomer, unassigned) [Example 22] | – | 50 nM | 2.8 | −8.6 mV | – | –
8 | COC(=O)C1=C(CF)NC2=C(C(=O)OC2)[C@H]1c1ccccc1C(F)(F)F (single isomer, unassigned) [Example 24] | – | 160 nM | – | – | – | –
9 | COC(=O)C1=C(CF)NC2=C(C(=O)CC2)[C@H]1c1cccc(F)c1CC(F)(F)F (single isomer, unassigned) [Example 25] | – | 40 nM | 1.7 | −4.2 mV | – | –
10 | COC(=O)C1=C(CF)NC2=C(C(=O)CC2)[C@H]1c1cccc(F)c1CC(F)F (single isomer, unassigned) [Example 26] | – | 300 nM | 2.0 | −4.3 mV | – | –
11 | COC(=O)C1=C(CF)NC2=C(C(=O)CC2)[C@H]1c1cccc(F)c1[C@@H](C)F (single isomer, unassigned) [Example 27, methyl (R)-4-(3-fluoro-2-((R or S)-1-fluoroethyl)phenyl)-2-(fluoromethyl)-5-oxo-4,5,6,7-tetrahydro-1H-cyclopenta[b]pyridine-3-carboxylate] | – | 30 nM | 1.5 | −8.7 mV | – | –
12 | COC(=O)C1=C(CF)NC2=C(C(=O)CC2)[C@H]1c1cc(F)cc(F)c1[C@H](C)F (single isomer, unassigned) [Example 29, methyl (R)-4-(3,5-difluoro-2-((S or R)-1-fluoroethyl)phenyl)-2-(fluoromethyl)-5-oxo-4,5,6,7-tetrahydro-1H-cyclopenta[b]pyridine-3-carboxylate] | – | 50 nM | 1.4 | – | – | –
13 | CCc1ccccc1[C@H]1C(C(=O)OC)=C(CF)NC2=C1C(=O)OC2 (single isomer, unassigned) [Example 30] | – | 90 nM | 1.8 | – | – | –
14 | COC(=O)C1=C(C(F)F)NC2=C(C(=O)OC2)[C@H]1c1cccc(F)c1[C@@H](C)F (single isomer, unassigned) [Example 31, methyl (R)-2-(difluoromethyl)-4-(3-fluoro-2-((R or S)-1-fluoroethyl)phenyl)-5-oxo-1,4,5,7-tetrahydrofuro[3,4-b]pyridine-3-carboxylate] | – | 290 nM | 1.6 | – | – | –
15 | CCOC(=O)C1=C(C)NC2=C(C(=O)OC2)[C@H]1c1ccccc1OCc1ccccc1 (single isomer, unassigned) [RS30124, reference compound] | 45 nM | – | – | – | 4.3 | −15.4 mV
16 | COC(=O)C1=C(C)NC(C)=C([N+](=O)[O-])[C@H]1c1ccccc1C(F)(F)F (single isomer, unassigned) [reference compound] | – | – | – | – | 3.9 | –
